Results on 60 compounds are retold here after US9776972B2, “Pyrazole derivatives as arginine methyltransferase inhibitors and uses thereof” (priority 2013, dated 2017).

Structures can show the parent of a compound that is named as a salt. Where two headings read alike, the source gives them in different places.

This assay relates to mono-methyl arginine in RKO cells. The assay is described as follows: RKO Methylation Assay, In Cell Western (ICW) for mono-methyl arginine and DNA content. In kind it is cell-based. The note with it: for EC30: Homo sapiens, RKO, 72 h; for EC30 (In Cell Western data): class symbols. The gist of the method:
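After fixation, mono-methyl arginine and DNA (DRAQ5) were measured by infrared In-Cell Western imaging at 700/800 nm in RKO cells exposed to compounds for 72 hours. Percent activation used DMSO wells as minimum and 20 μM reference compound as maximum; EC30 curves fitted on triplicate wells.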

Where [1] appears, read: read-out: EC30 (In Cell Western data, Numerical, μM).
The mark [2] stands for this setting: RKO cells, 72 hours, mono-methyl arginine, percent activation, single experiment or average of multiple experiments, read-out: EC30 (In Cell Western data, Numerical).
Where [3] appears, read: RKO cells, 72 hours, mono-methyl arginine, percent activation.

Consider `CNCCN(C)Cc1c[nH]nc1-c1ccc(F)cc1` [Compound 2, N^1-((3-(4-fluorophenyl)-1H-pyrazol-4-yl)methyl)-N^1,N^2-dimethylethane-1,2-diamine], for which the EC30 under setting [1] was determined as 1.12 µM.

As to `CCCc1ccc(-c2n[nH]cc2CN(C)CCNC)cc1` [Compound 20], under setting [2], the EC30 stood at 0.18 µM.

Consider `CNCCN(C)Cc1c[nH]nc1-c1ccc(O)cc1` [Compound 27], for which the EC30 under setting [2] amounted to 12.3 µM.

For `CNCCN(C)Cc1c[nH]nc1-c1ccc(CO)cc1` [Compound 28], the EC30 under setting [2] was 10.2 µM.

Consider `CNCCN(C)Cc1c[nH]nc1-c1ccc(Oc2ccccc2)cc1` [Compound 37], for which the EC30 under setting [2] came out at 0.05 µM.

On to `CNCCN(C)Cc1c[nH]nc1-c1ccccc1C(F)(F)F` [Compound 38], for which the “EC30 (In Cell Western data)” value under setting [3] is recorded as “C (“C” indicates an EC30 ≧ 12.01 μM)”.

As to `CNCCN(C)Cc1c[nH]nc1-c1ccc(C(=O)c2ccccc2)cc1` [Compound 45], the “EC30 (In Cell Western data)” value under setting [3] was “A (“A” indicates an EC30 ≦ 3.00 μM)”. The “EC30 (In Cell Western data, Numerical, μM)” value (RKO cells, 72 hours, mono-methyl arginine, percent activation, single experiment or average of multiple experiments) was found to be 0.454 µM.

For `CNCCN(C)Cc1c[nH]nc1-c1ccccc1-c1ccccc1` [Compound 46], under setting [3], the “EC30 (In Cell Western data)” value is “C (“C” indicates an EC30 ≧ 12.01 μM)”.

On to `CNCCN(C)Cc1c[nH]nc1-c1ccc(OC)cc1OC` [Compound 55], for which the “EC30 (In Cell Western data)” value under setting [3] was “C (“C” indicates an EC30 ≧ 12.01 μM)”.

Take `CNCCN(C)Cc1c[nH]nc1-c1c(OC)cccc1OC` [Compound 56]: the “EC30 (In Cell Western data)” value under setting [3] is on record as “C (“C” indicates an EC30 ≧ 12.01 μM)”.

With `CCN(CCN)Cc1c[nH]nc1-c1ccc(F)cc1` [Compound 62], the EC30 under setting [2] was greater than 20 µM.

`CCCN(CCN)Cc1c[nH]nc1-c1ccc(F)cc1` [Compound 63]: the EC30 under setting [2] was greater than 20 µM.

Take `CN(CCN)Cc1c[nH]nc1-c1ccc(C#N)cc1` [Compound 68]: the EC30 under setting [2] came to 0.775 µM.

For `CNCCN(C)Cc1c[nH]nc1-c1cc(C(C)C)cc(C(C)C)c1` [Compound 229, N^1-((3-(3,5-diisopropylphenyl)-1H-pyrazol-4-yl)methyl)-N^1,N^2-dimethylethane-1,2-diamine], the EC30 under setting [2] came to 8.71 µM.

With `CNCCN(C)Cc1c[nH]nc1-c1ccc(Oc2cccc(OC)c2)cc1` [Compound 230], under setting [2], the EC30 worked out at 0.206 µM.

As to `CNCCN(C)Cc1c[nH]nc1-c1ccc(Oc2cccc(F)c2)cc1` [Compound 231], the EC30 under setting [2] was 0.23 µM.

As for `CNCCN(C)Cc1c[nH]nc1-c1ccc(Oc2ccccc2)c(C(=O)NC)c1` [Compound 232], under setting [2], the EC30 turned out to be 7.14 µM.

Consider `CNCCN(C)Cc1c[nH]nc1-c1ccc(Oc2ccccc2)c(C(=O)N(C)C)c1` [Compound 233], for which the EC30 under setting [2] was determined as 17.3 µM.

Turning to `CC(C)Cc1cccc(-c2n[nH]cc2CN(C)CCN)c1` [Compound 235], the EC30 under setting [2] came out at 1.56 µM.

Turning to `CNCCN(C)Cc1c[nH]nc1-c1ccc(OCCCO)cc1` [Compound 236], under setting [2], the EC30 is 0.852 µM.

`CNCCN(C)Cc1c[nH]nc1-c1ccc(Oc2ccccc2F)cc1` [Compound 237]: under setting [2], the EC30 worked out at 0.114 µM.

For the compound `CNCCN(C)Cc1n[nH]cc1-c1ccc(Oc2cccc(OC)c2)cc1` [Compound 239], the EC30 under setting [2] turned out to be 1.28 µM.

For the compound `CNCCN(C)Cc1n[nH]cc1-c1ccc(Oc2ccccc2)c(C(=O)NC)c1` [Compound 240], the EC30 under setting [2] amounted to 6.45 µM.

On to `CNCCN(C)Cc1n[nH]cc1-c1ccc(Oc2ccccc2)c(C(=O)N(C)C)c1` [Compound 241], for which, under setting [2], the EC30 is 10.4 µM.

Take `CNCCN(C)Cc1n[nH]cc1-c1cc(C(C)C)cc(C(C)C)c1` [Compound 242]: under setting [2], the EC30 is greater than 20 µM.

With `CNCCN(C)Cc1cn(C)nc1-c1ccc(OC(C)C)cc1` [Compound 243, N^1-((3-(4-isopropoxyphenyl)-1-methyl-1H-pyrazol-4-yl)methyl)-N1,N2-dimethylethane-1,2-diamine], the EC30 under setting [2] came to 0.809 µM.

As for `CNCCN(C)Cc1cn(Cc2ccncc2)nc1-c1ccc(OC(C)C)cc1` [Compound 245], the EC30 under setting [2] was found to be 0.627 µM.

On to `CNCCN(C)Cc1cn(Cc2cccnc2)nc1-c1ccc(OC(C)C)cc1` [Compound 246], for which, under setting [1], the EC30 amounted to 1.08 µM.

With `CNCCN(C)Cc1cn(Cc2ccccn2)nc1-c1ccc(OC(C)C)cc1` [Compound 247], under setting [2], the EC30 came to 8.26 µM.

Turning to `CNCCN(C)Cc1cn(CC(=O)OC)nc1-c1ccc(OC(C)C)cc1` [Compound 248], under setting [2], the EC30 is greater than 20 µM.

As to `CNCCN(C)Cc1cnn(CC(=O)OC)c1-c1ccc(OC(C)C)cc1` [Compound 249], under setting [1], the EC30 stood at 9.53 µM.

As to `CNCCN(C)Cc1cn(CC(=O)O)nc1-c1ccc(OC(C)C)cc1` [Compound 250], the EC30 under setting [1] is greater than 20 µM.

Turning to `CNCCN(C)Cc1cn(CC(N)=O)nc1-c1ccc(OC(C)C)cc1` [Compound 251], under setting [2], the EC30 is 18.7 µM.

With `CCn1ncc(CN(C)CCNC)c1-c1ccc(OC(C)C)cc1` [Compound 252], under setting [1], the EC30 came to 1.82 µM.

Regarding `CNCCN(C)Cc1cn(CCOC)nc1-c1ccc(OC(C)C)cc1` [Compound 253, N1-((3-(4-isopropoxyphenyl)-1-(2-methoxyethyl)-1H-pyrazol-4-yl)methyl)-N1,N2-dimethylethane-1,2-diamine hydrochloride], under setting [1], the EC30 was 8 µM.

`CNCCN(C)Cc1cn(C2CCC2)nc1-c1ccc(OC(C)C)cc1` [Compound 254, N1-((1-cyclobutyl-3-(4-isopropoxyphenyl)-1H-pyrazol-4-yl)methyl)-N1,N2-dimethylethane-1,2-diamine hydrochloride]: under setting [1], the EC30 is 2.24 µM.

Take `CNCCN(C)Cc1cnn(C2CCCC2)c1-c1ccc(OC(C)C)cc1` [Compound 255]: the EC30 under setting [1] came out at 2.66 µM.

With `CNCCN(C)Cc1cn(C2CCCCC2)nc1-c1ccc(OC(C)C)cc1` [Compound 256], the EC30 under setting [2] is greater than 20 µM.

As for `C=C(C)C(=O)Nc1cccc(-c2[nH]ncc2CN(C)CCNC)c1` [Compound 257], the EC30 under setting [2] was greater than 20 µM.

Take `C=CC(=O)Nc1cccc(-c2[nH]ncc2CN(C)CCNC)c1` [Compound 258]: the EC30 under setting [2] was greater than 20 µM.

`CN(CCN)Cc1c[nH]nc1-c1ccc(Oc2ccccc2F)cc1` [Compound 259]: under setting [2], the EC30 worked out at 0.532 µM.

As for `CNCCN(C)Cc1c[nH]nc1-c1cc(OC(C)C)cc(C(C)C)c1` [Compound 260], under setting [2], the EC30 worked out at 6.07 µM.

With `CNCCN(C)Cc1c[nH]nc1-c1ccc(Oc2cccc(C#N)c2)cc1` [Compound 261], the EC30 under setting [2] was 0.327 µM.

As to `CNCCN(C)Cc1c[nH]nc1-c1ccc(Oc2cccc(C(C)C)c2)cc1` [Compound 262], under setting [2], the EC30 is 1.23 µM.

On to `CNCCN(C)Cc1c[nH]nc1-c1cc(Cl)c(OC(C)C)c(Cl)c1` [Compound 265, N^1-((3-(3,5-dichloro-4-isopropoxyphenyl)-1H-pyrazol-4-yl)methyl)-N^1,N^2-dimethylethane-1,2-diamine], for which, under setting [2], the EC30 was found to be 0.503 µM.

Take `CNCCN(C)Cc1nn(C)cc1-c1ccc(OCCCOC)cc1` [Compound 266]: the EC30 under setting [2] is greater than 20 µM.

Regarding `CNCCN(C)Cc1n[nH]cc1-c1ccc(Oc2cccc(C#N)c2)cc1` [Compound 267], under setting [2], the EC30 was 0.694 µM.

`CNCCN(C)Cc1n[nH]cc1-c1ccc(Oc2cccc(C(=O)NC)c2)cc1` [Compound 268]: the EC30 under setting [2] amounted to 3.69 µM.

Consider `CNCCN(C)Cc1n[nH]cc1-c1ccc(Oc2cccc(F)c2)cc1` [Compound 270], for which the EC30 under setting [2] was found to be 1.06 µM.

Take `CNCCN(C)Cc1n[nH]cc1-c1cc(CC(C)C)cc(CC(C)C)c1` [Compound 271]: the EC30 under setting [2] was greater than 20 µM.

As for `CNCCN(C)Cc1n[nH]cc1-c1cc(OC(C)C)cc(C(C)C)c1` [Compound 272], under setting [2], the EC30 is greater than 20 µM.

Consider `CNCCN(C)Cc1n[nH]cc1-c1cc(Cl)c(OC(C)C)c(Cl)c1` [Compound 273], for which, under setting [2], the EC30 is 1.3 µM.

In the case of `CNCCN(C)Cc1c[nH]nc1-c1ccc(Oc2ccccc2C(=O)NC)cc1` [Compound 274], under setting [2], the EC30 was found to be 3.04 µM.

As to `CNCCN(C)Cc1n[nH]c(C)c1-c1ccc(OC(C)C)cc1` [Compound 275], the EC30 under setting [2] came to 0.122 µM.

Consider `CNCCN(C)Cc1c(-c2ccc(OCCCOC)cc2)cnn1C` [Compound 276], for which the EC30 under setting [2] is greater than 20 µM.

For the compound `CNCCN(C)Cc1n[nH]cc1-c1ccc(Oc2cccc(C(C)C)c2)cc1` [Compound 277], under setting [2], the EC30 was greater than 20 µM.

Turning to `CNCCN(C)Cc1n[nH]cc1-c1ccc(Oc2ccccc2F)cc1` [Compound 279, N^1-((4-(4-(2-fluorophenoxy)phenyl)-1H-pyrazol-3-yl)methyl)-N^1,N^2-dimethylethane-1,2-diamine], the 30% effect concentration (EC30) under setting [2] was found to be 0.637 µM.

With `CC(C)Cc1cc(-c2n[nH]cc2CN(C)CCN)ccc1F` [Compound 280], the concentration for an effect of 30% (EC30) under setting [2] is 1.72 µM.

Turning to `CNCCN(C)Cc1c[nH]nc1-c1cc(CC(C)C)cc(CC(C)C)c1` [Compound 281], the EC30 under setting [2] is 3.52 µM.

Regarding `CNCCN(C)Cc1c[nH]nc1-c1cc(Cl)c(OCC2CC2)c(Cl)c1` [Compound 282], the EC30 under setting [2] worked out at 0.383 µM.

What is called EC30 is the concentration at which the effect reaches the 30% level.
